Measured values reported in PubChem BioAssay AID330 (DTP/NCI, 2004).
Where “and” joins values, the source holds several entries; their conditions need not be identical. Equal entries are not always repeated. Inconclusive results and toxic doses are left out.

System: P388 leukemia ip, CD2F1 mice, survival T/C
Test: NCI In Vivo Anticancer Drug Screen. Data for tumor model P388 Leukemia (intraperitoneal) in CD2F1 (CDF1) mice
Conditions: endpoint: median survival time, higher = longer survival
Summary of the method: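 Mice carrying the transplanted tumor received test compound or vehicle. Survival was recorded in each group, and the value is the treated-group measurement divided by that of the vehicle-treated control group.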

[1] = dose: 50.0 mg/kg/injection, schedule: Q01DX009 (ip), vehicle: saline
[2] = dose: 100.0 mg/kg/injection, schedule: Q01DX009 (ip), vehicle: saline
[3] = dose: 200.0 mg/kg/injection, schedule: Q01DX009 (ip), vehicle: saline
[4] = dose: 240.0 mg/kg/injection, schedule: Q01DX005 (ip), vehicle: saline with Tween-80

CCOC(=O)CCC(NC(=O)c1ccc(NCc2ccc3nc(N)nc(N)c3c2C)cc1)C(=O)OCC (configuration not stated)
T/C (dose: 0.01 mg/kg/injection, schedule: Q01DX009 (ip), vehicle: saline + alcohol): 108 % of control and 109 % of control | T/C (dose: 0.02 mg/kg/injection, schedule: Q01DX009 (ip), vehicle: saline + alcohol): 98 % of control and 113 % of control | T/C (dose: 0.03 mg/kg/injection, schedule: Q01DX009 (ip), vehicle: saline + alcohol): 153 % of control and 162 % of control | T/C (dose: 0.06 mg/kg/injection, schedule: Q01DX001 (ip), vehicle: saline + alcohol): 100 % of control and 88 % of control | T/C (dose: 0.06 mg/kg/injection, schedule: Q01DX009 (ip), vehicle: saline + alcohol): 170 % of control | T/C (dose: 0.13 mg/kg/injection, schedule: Q01DX001 (ip), vehicle: saline + alcohol): 111 % of control and 117 % of control | T/C (dose: 0.25 mg/kg/injection, schedule: Q01DX001 (ip), vehicle: saline + alcohol): 109 % of control and 110 % of control

CSCCC(NC(=O)OCC1c2ccccc2-c2ccccc21)C(=O)O (configuration not stated)
T/C (dose: 50.0 mg/kg/injection, schedule: Q01DX005 (ip), vehicle: Klucel (hydroxypropylcellulose) (HPC)): 103 % of control | T/C (dose: 100.0 mg/kg/injection, schedule: Q01DX005 (ip), vehicle: Klucel (hydroxypropylcellulose) (HPC)): 100 % of control

CN1c2c(C(=O)Nc3nccs3)nn(-c3ccccc3)c2-c2ccccc2S1(=O)=O
T/C (dose: 50.0 mg/kg/injection, schedule: Q01DX005 (ip), vehicle: saline): 89 % of control | T/C (dose: 100.0 mg/kg/injection, schedule: Q01DX005 (ip), vehicle: saline): 92 % of control | T/C (dose: 200.0 mg/kg/injection, schedule: Q01DX005 (ip), vehicle: saline): 99 % of control

CCCCCCCCCCCC(=O)C(=O)c1ccc(O)cc1O
T/C (dose: 50.0 mg/kg/injection, schedule: Q01DX009 (ip), vehicle: Klucel (hydroxypropylcellulose) (HPC)): 110 % of control | T/C (dose: 100.0 mg/kg/injection, schedule: Q01DX009 (ip), vehicle: Klucel (hydroxypropylcellulose) (HPC)): 107 % of control | T/C (dose: 200.0 mg/kg/injection, schedule: Q01DX009 (ip), vehicle: Klucel (hydroxypropylcellulose) (HPC)): 109 % of control

CCCCCC1=C/N\C(C#N)=C(C#N)/N=C/C(CCCCC)=C\N\C(C#N)=C(C#N)/N=C\1
T/C (dose: 6.25 mg/kg/injection, schedule: Q01DX009 (ip), vehicle: Klucel (hydroxypropylcellulose) (HPC)): 93 % of control | T/C (dose: 12.5 mg/kg/injection, schedule: Q01DX009 (ip), vehicle: Klucel (hydroxypropylcellulose) (HPC)): 93 % of control | T/C (dose: 25.0 mg/kg/injection, schedule: Q01DX009 (ip), vehicle: Klucel (hydroxypropylcellulose) (HPC)): 93 % of control

CC1=CN2CCC(=O)N=C2C=C1
T/C [1]: 93 % of control | T/C [2]: 90 % of control | T/C [3]: 94 % of control

CC(C)(C)C1CC=CCC1 (configuration not stated)
T/C (dose: 50.0 mg/kg/injection, schedule: Q01DX009 (ip), vehicle: saline sonified): 109 % of control | T/C (dose: 100.0 mg/kg/injection, schedule: Q01DX009 (ip), vehicle: saline sonified): 100 % of control

N#C/C(=C\Nc1ccccn1)C(=O)c1ccccc1
T/C (dose: 60.0 mg/kg/injection, schedule: Q01DX005 (ip), vehicle: saline with Tween-80): 91 % of control | T/C (dose: 120.0 mg/kg/injection, schedule: Q01DX005 (ip), vehicle: saline with Tween-80): 91 % of control | T/C [4]: 91 % of control

Cc1nn(CC(=O)O)c(=O)c(C#N)c1-c1ccccc1
T/C (dose: 62.5 mg/kg/injection, schedule: Q04DX002 (ip), vehicle: other): 116 % of control | T/C (dose: 125.0 mg/kg/injection, schedule: Q04DX002 (ip), vehicle: other): 102 % of control | T/C (dose: 250.0 mg/kg/injection, schedule: Q04DX002 (ip), vehicle: other): 115 % of control | T/C (dose: 500.0 mg/kg/injection, schedule: Q04DX002 (ip), vehicle: other): 109 % of control

Nc1nc(N)c2nc(CNc3ccc(C(=O)NC(CCC(=O)O)C(=O)O)cc3)cnc2n1 (configuration not stated)
T/C (dose: 0.03 mg/kg/injection, schedule: Q01DX009 (ip), vehicle: clinical formulation): 105 % of control | T/C (dose: 0.04 mg/kg/injection, schedule: Q01DX009 (ip), vehicle: clinical formulation): 120 % of control

O=C(Oc1ccc(Cl)cc1Cl)C(Cl)=C(Cl)Cl
T/C [1]: 97 % of control | T/C [2]: 111 % of control | T/C [3]: 101 % of control

O=C1CS(=O)(=O)C(c2cccnc2)N1CCN1C(=O)CS(=O)(=O)C1c1cccnc1 (configuration not stated)
T/C (dose: 100.0 mg/kg/injection, schedule: Q04DX002 (ip), vehicle: saline with Tween-80): 97 % of control | T/C (dose: 200.0 mg/kg/injection, schedule: Q04DX002 (ip), vehicle: saline with Tween-80): 93 % of control | T/C (dose: 400.0 mg/kg/injection, schedule: Q04DX002 (ip), vehicle: saline with Tween-80): 92 % of control

COc1cc2cc3cc(-c4ccc(Cl)cc4)c(N4CCCCC4)nc3nc2cc1OC
T/C (dose: 3.75 mg/kg/injection, schedule: Q01DX005 (ip), vehicle: saline with Tween-80): 92 % of control | T/C (dose: 7.5 mg/kg/injection, schedule: Q01DX005 (ip), vehicle: saline with Tween-80): 87 % of control | T/C (dose: 30.0 mg/kg/injection, schedule: Q01DX005 (ip), vehicle: saline with Tween-80): 86 % of control | T/C [4]: 91 % of control
